Experimental data from publication PMC11218446, “Antibacterial efficacy and membrane mechanism of action of the Serratia-derived non-ionic lipopeptide, serrawettin W2-FL10” (Microbiology Spectrum, 2024).
“And” between values parts separate entries of the source, which are not always exact repeats. Equal entries are not always repeated. Marks after values point to notes of the source that are not given here.

Tests used:
[1] = Oligomer detection by ESI-HRMS; format: physicochemical; conditions: MaxEnt 3 mass spectrum (Fig. 1C)
MRSA Xen 30 = assay: Scanning electron microscopy; format: cell-based, Staphylococcus aureus; conditions: 25 µg/mL, 1 h
Protocol: (§1) SEM was performed to visualize the bacterial membrane morphology following treatment ([24]). Briefly, the S. aureus strains were prepared as described in the “Antibacterial activity: broth microdilution assay” section and harvested by centrifugation at 3,000 rpm for 10 min. The cells were re-suspended in PBS at a dilution of ~10^7 CFU/mL (OD600 = 0.4). The diluted cultures were then treated with 25 µg/mL of W2-FL10, for 1 h, while cells without W2-FL10 were used as a control. Specimens were resuspended in 2.5% (vol/vol) glutaraldehyde solution in 0.1 M PBS (pH 7.2) and fixed for approximately 24 h. After the primary fixation, bacterial cells were pelleted and rinsed with PBS. Dehydration of samples through an ethanol series (30%, 50%, 70%, 90%, 95%, and 100% for 10 min each) was performed, followed by filtration onto a filter paper (pore size of 0.2 µm), which was glued onto an aluminum grid (11 mm diameter). The grid was dried with hexamethyldisilazane and coated with gold-palladium alloy. The grids were then inspected with a Tescan MIRA3 RISE Scanning Electron Microscope at the Electron Microscope Unit of the University of Cape Town.

S. aureus RN4220 = assay: Scanning electron microscopy; format: cell-based, Staphylococcus aureus; conditions: 25 µg/mL, 1 h; primarily one large lesion per cell
Protocol: as §1

S. aureus ATCC 25923 = assay: Scanning electron microscopy; format: cell-based, Staphylococcus aureus; conditions: 25 µg/mL, 1 h
Protocol: as §1

[2] = Mammalian cell cytotoxicity, MTT assay; conditions: CHO cells
Protocol: (§2) To determine the biocompatibility of W2-FL10 as a potential therapeutic agent, the in vitro cytotoxicity of W2-FL10 against the CHO cell line ([50]) was determined over 48 h by the Drug Discovery and Development Centre at the University of Cape Town, as previously described by Mosmann ([51]). Briefly, W2-FL10 was prepared to a 10 mM stock solution in 100% DMSO and dilutions were prepared in growth media. The CHO cell line density of 10^5 cells/well in 96-well plates and allowed to attach for 24 h. Thereafter, the compound was added to the 96-well plates at various concentrations from 50 µM down to 16 nM and incubated for a further 48 h. At 44 h, MTT was added to the wells, and the plates were read 4 h later at 540 nm on a spectrophotometer. […] Finally, cell inhibition was plotted against concentration and the 50% lethal concentration (LC50) parameter and a minimum lethal concentration (MLC90) were obtained as described for the dose responses against bacterial targets above (equation 1).

[3] = tested on: Chinese hamster ovarian (CHO) cell line; assay: Mammalian cell cytotoxicity, MTT assay; conditions: CHO cells
Protocol: as §2

[4] = tested on: tested Gram-negative bacterial strains; assay: Broth microdilution assay (OD 600 nm); format: cell-based; conditions: results not shown
Excerpt: The S. marcescens NP2 strain was previously isolated from a wastewater treatment plant sample and the identity of the strain was confirmed via molecular typing ([47]). The S. marcescens NP2 strain was deposited in the South African Rhizobium Culture Collection (SARCC no. 3157). The test bacterial strains used in the broth microdilution assay included L. monocytogenes ATCC 13932, E. faecalis ATCC 7080, S. aureus ATCC 25923, S. aureus RN4220, MRSA Xen 30, E. faecalis S1, E. faecium S1, B. subtilis ATCC 6051, E. coli ATCC 417371, P. aeruginosa ATCC 27853, K. pneumoniae ATCC 13383, A. baumannii ATCC 19606, and S. typhimurium ATCC 14028. […]
All the cultures (inoculated into 5 mL MHB, or 5 mL TSB for Listeria and Enterococcus strains) were incubated at 37°C to reach an optical density (OD) of 0.4 at 600 nm (∼10^7 CFU/mL). […] Following incubation, the absorbance was measured using a microtiter plate reader at 600 nm. […]
The “top” and “bottom” are the maximum and minimum inhibition responses, respectively, for a particular set of dose-response data, while the activity slope is related to the Hill slope of a sigmoidal binding curve ([16]). […] In addition to the MIC and IC50 inhibition parameters, an inhibition concentration factor (ICF), was calculated as outlined in Rautenbach et al. ([17]). […]

**Q.** For `CCCCCCCC1CC(=O)N[C@H](CC(C)C)C(=O)N[C@@H](CO)C(=O)N[C@@H]([C@@H](C)O)C(=O)N[C@H](Cc2ccccc2)C(=O)N[C@@H](CC(C)C)C(=O)O1` (some centres unmarked) [W2-FL10, serrawettin W2-FL10], which oligomers detected [1] is on record?
**A.** dimers, trimers, tetramers, and pentamers

**Q.** What about the “morphology by SEM, in words” value (MRSA Xen 30) of the same molecule?
**A.** Minor morphological changes

**Q.** What about the “morphology by SEM, in words” value (S. aureus RN4220) of the same molecule?
**A.** more significant cell damage

**Q.** What about the “morphology by SEM, in words” value (S. aureus ATCC 25923) of the same molecule?
**A.** Minor morphological changes

**Q.** And the CC50 at 48 h [2]?
**A.** 40 µM and 29 µg/mL

**Q.** What about the “MLC, minimum lethal concentration” value ([3]; MTT, 48 h, MLC90) of the same molecule?
**A.** 36.6 (50.0)^e μg/mL

**Q.** And the “ICF (MIC/IC50)^2” value ([3]; from MLC and LC50)?
**A.** 1.6

**Q.** And the MIC [4]?
**A.** > 125 µg/mL
